Experimental data from the supplement of paper PMC10307832.

How the values were obtained:
Assay in all cases: relative viability (nuclei count vs DMSO), 5 days (fraction); higher = more cells survive
[1] = compound: C1CNCCC1C2=CC(=NN2)C3=CC=NC=C3 + CC(=O)Nc1cccc(-n2c(=O)n(C3CC3)c(=O)c3c(Nc4ccc(I)cc4F)n(C)c(=O)c(C)c32)c1 [Trametinib] (partner 0.02 µM)
How it was run: (§1)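 Each reported value is a median over duplicate plates. It expresses relative viability: treated-well nuclei count divided by vehicle-well nuclei count. Lung cancer cell lines in 1536-well plates were dosed by pin tool a day after seeding, alone with one drug or with a fixed anchor-drug dose plus five library-drug doses (not always all listed) in √10 steps, and nuclei were counted after 5 days.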

[2] = compound: C1CNCCC1C2=CC(=NN2)C3=CC=NC=C3 + COc1cccc2cc(-c3nc([C@H]4CC[C@H](C(=O)O)CC4)n4ncnc(N)c34)[nH]c12 [OSI-027] (partner 0.5 µM)
How it was run: as §1

[3] = compound: C1CNCCC1C2=CC(=NN2)C3=CC=NC=C3 + Cc1nc(Nc2ncc(C(=O)Nc3c(C)cccc3Cl)s2)cc(N2CCN(CCO)CC2)n1 [Dasatinib] (partner 0.075 µM)
How it was run: as §1

[4] = compound: C[C@@H](N)c1ccc(C(=O)Nc2ccnc3[nH]ccc23)cc1 + C[C@]1(O)C[C@@H](c2nc(-c3ccc4ccc(-c5ccccc5)nc4c3)c3c(N)nccn32)C1 [Linsitinib] (partner 1 µM)
How it was run: as §1

Q: How did the relative viability ([1]; first compound 0.08 µM) turn out when UMC-11 was run?
A: 0.554

Q: What about the relative viability ([1]; first compound 0.8 µM) of the same cell line?
A: 0.776

Q: What about the relative viability ([1]; first compound 2.53 µM) of the same cell line?
A: 0.796

Q: What about the relative viability ([1]; first compound 8 µM) of the same cell line?
A: 0.768

Q: What about the relative viability ([2]; first compound 0.08 µM) of the same cell line?
A: 0.452

Q: What about the relative viability ([2]; first compound 0.8 µM) of the same cell line?
A: 0.537

Q: What about the relative viability ([2]; first compound 2.53 µM) of the same cell line?
A: 0.459

Q: And the relative viability ([2]; first compound 8 µM)?
A: 0.553

Q: What about the relative viability ([3]; first compound 0.08 µM) of the same cell line?
A: 0.498

Q: And the relative viability ([3]; first compound 0.8 µM)?
A: 0.543

Q: And the relative viability ([3]; first compound 2.53 µM)?
A: 0.488

Q: And the relative viability ([3]; first compound 8 µM)?
A: 0.521

Q: And the relative viability ([4]; first compound 0.04 µM)?
A: 1.02

Q: What about the relative viability ([4]; first compound 0.1265 µM) of the same cell line?
A: 1.09

Q: What about the relative viability ([4]; first compound 0.4 µM) of the same cell line?
A: 1.06

Q: And the relative viability ([4]; first compound 1.265 µM)?
A: 0.958

Q: And the relative viability ([4]; first compound 4 µM)?
A: 0.641
